Source: patent publication US20240116951A1, “HETEROCYCLIC COMPOUNDS AND USES THEREOF” (Kumquat Biosciences Inc., priority 2022, published 2024)

How the values were obtained:
Assay type in all cases: binding
[1] = molecular target: T1, KRAS G12S (Homo sapiens, UniProt P01116, G12S); experiment: HTRF assay of K-Ras G12S interaction with SOS1 (PPI-HTRF); conditions: 5 nM KRAS G12S, read-out: PPI-HTRF-5 nM KRAS G12S
T1 construct: made in house; host or cells: E. coli, e.g. BL21 (DE3)
Summary of the method: (§1)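 HTRF readout of GST-tagged K-Ras (WT or mutant) binding to His-hSOS1, using anti-GST-Eu donor and anti-6His-XL665 acceptor in HEPES pH 7.4 buffer with DTT, BSA and Igepal. Read after about 10 min or longer; duplicate compound dilutions from 10 μM. IC50 from 665/620 nm ratio.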

[2] = molecular target: T2, KRAS G12D (Homo sapiens, UniProt P01116, G12D); experiment: HTRF assay of K-Ras G12D interaction with SOS1 (PPI-HTRF); conditions: HTRF, 5 nM KRAS G12D; read-out: PPI-HTRF-5 nM KRAS G12D
T2 construct: made in house; host or cells: E. coli, e.g. BL21 (DE3)
Summary of the method: as §1

[3] = molecular target: T3, KRAS WT (Homo sapiens, UniProt P01116); experiment: HTRF assay of wildtype K-Ras interaction with SOS1 (PPI-HTRF); conditions: HTRF, 5 nM KRAS WT; read-out: PPI-HTRF-5 nM KRAS WT
T3 construct: made in house; host or cells: E. coli, e.g. BL21 (DE3)
Summary of the method: as §1

T1 sequence (P01116 1-188 isoform P01116-2 G12S): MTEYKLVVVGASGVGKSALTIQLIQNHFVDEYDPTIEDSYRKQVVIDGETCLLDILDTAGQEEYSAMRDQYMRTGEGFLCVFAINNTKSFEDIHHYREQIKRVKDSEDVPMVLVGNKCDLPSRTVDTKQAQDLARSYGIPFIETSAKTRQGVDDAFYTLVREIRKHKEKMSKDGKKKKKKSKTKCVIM
T3 sequence (P01116 1-188 isoform P01116-2): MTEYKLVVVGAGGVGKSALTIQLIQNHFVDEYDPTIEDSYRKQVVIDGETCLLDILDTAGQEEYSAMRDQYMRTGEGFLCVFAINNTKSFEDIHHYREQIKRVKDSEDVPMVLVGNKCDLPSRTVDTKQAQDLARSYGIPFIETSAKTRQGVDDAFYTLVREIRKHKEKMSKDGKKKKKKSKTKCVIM
T2 sequence (P01116 1-188 isoform P01116-2 G12D): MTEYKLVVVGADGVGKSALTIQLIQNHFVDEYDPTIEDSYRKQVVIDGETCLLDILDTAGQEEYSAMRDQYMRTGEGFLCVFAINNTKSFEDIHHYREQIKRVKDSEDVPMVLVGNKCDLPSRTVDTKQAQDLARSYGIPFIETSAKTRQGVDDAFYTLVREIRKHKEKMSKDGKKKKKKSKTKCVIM

IC50 [1] [µM] | IC50 [2] [µM] | IC50 [3] [µM] | Compound
< 5 | < 5 | < 5 | N#Cc1c(N)sc2c(F)ccc(-c3c(F)c4nc(OC[C@@]56CCCN5C[C@H](F)C6)nc(N5CCC6(CCN6C(=O)n6cncn6)C5)c4c(=O)n3C3CC3)c12 (stereo partly drawn) [Compound 267, 4-(4-(1-(1H-1,2,4-triazole-1-carbonyl)-1,6-diazaspiro[3.4]octan-6-yl)-6-cyclopropyl-8-fluoro-2-(((2R,7aS)-2-fluorotetrahydro-1H-pyrrolizin-7a(5H)-yl)methoxy)-5-oxo-5,6-dihydropyrido[4,3-d]pyrimidin-7-yl)-2-amino-7-fluorobenzo[b]thiophene-3-carbonitrile]
< 5 | < 5 | < 5 | N#Cc1c(N)sc2c(F)ccc(-c3c(Cl)cc4c(N5CC[C@@]6(CCN6C(=O)n6cnc(Cl)n6)C5)nc(OC[C@@]56CCCN5C[C@H](F)C6)nc4c3F)c12 (atropisomer, axis not shown; (aS)) [Compound 225, 2-amino-4-((R)-6-chloro-4-((R)-1-(3-chloro-1H-1,2,4-triazole-1-carbonyl)-1,6-diazaspiro[3.4]octan-6-yl)-8-fluoro-2-(((2R,7aS)-2-fluorotetrahydro-1H-pyrrolizin-7a(5H)-yl)methoxy)quinazolin-7-yl)-7-fluorobenzo[b]thiophene-3-carbonitrile]
< 5 | < 5 | < 5 | C[C@@H]1C[C@@]2(CCN2)CN1c1nc(OC[C@@]23CCCN2C[C@H](F)C3)nc2c(F)c(-c3ccc(F)c4sc(N)c(C#N)c34)c(Cl)cc12 [Compound 335, 2-amino-4-(6-chloro-8-fluoro-2-(((2R,7aS)-2-fluorotetrahydro-1H-pyrrolizin-7a(5H)-yl)methoxy)-4-((4S,7R)-7-methyl-1,6-diazaspiro[3.4]octan-6-yl)quinazolin-7-yl)-7-fluorobenzo[b]thiophene-3-carbonitrile]
< 5 | < 5 | < 5 | N#CCc1ncn(C(=O)N2CCC23CCN(c2nc(OC[C@@]45CCCN4C[C@H](F)C5)nc4c(F)c(-c5ccc(F)c6sc(N)c(C#N)c56)c(Cl)cc24)C3)n1 (stereo partly drawn) [Compound 320, 2-amino-4-(6-chloro-4-(1-(3-(cyanomethyl)-1H-1,2,4-triazole-1-carbonyl)-1,6-diazaspiro[3.4]octan-6-yl)-8-fluoro-2-(((2R,7aS)-2-fluorotetrahydro-1H-pyrrolizin-7a(5H)-yl)methoxy)quinazolin-7-yl)-7-fluorobenzo[b]thiophene-3-carbonitrile]
> 5 | > 5 | < 5 | Nc1nc2c(-c3ccc4c(N5CC6(CNCCN6)C5)nc(OC[C@@]56CCCN5C[C@H](F)C6)nc4c3F)ccc(F)c2s1 [Compound 253, 7-fluoro-4-(8-fluoro-2-(((2R,7aS)-2-fluorotetrahydro-1H-pyrrolizin-7a(5H)-yl)methoxy)-4-(2,5,8-triazaspiro[3.5]nonan-2-yl)quinazolin-7-yl)benzo[d]thiazol-2-amine]
< 5 | < 5 | < 5 | N#Cc1c(N)sc2c(F)ccc(-c3c(Cl)cc4c(N5CCC6(CCN6C#N)C5)nc(OC[C@@]56CCCN5C[C@H](F)C6)nc4c3F)c12 (stereo partly drawn) [Compound 303, 6-(7-(2-amino-3-cyano-7-fluorobenzo[b]thiophen-4-yl)-6-chloro-8-fluoro-2-(((2R,7aS)-2-fluorotetrahydro-1H-pyrrolizin-7a(5H)-yl)methoxy)quinazolin-4-yl)-1,6-diazaspiro[3.4]octane-1-carbonitrile]
< 5 | < 5 | < 5 | Cc1nc(C(C)C)nn1C(=O)N1CCC12CCN(c1nc(OC[C@@]34CCCN3C[C@H](F)C4)nc3c(F)c(-c4ccc(F)c5sc(N)c(C#N)c45)c(Cl)cc13)C2 (stereo partly drawn) [Compound 266, 2-amino-4-(6-chloro-8-fluoro-2-(((2R,7aS)-2-fluorotetrahydro-1H-pyrrolizin-7a(5H)-yl)methoxy)-4-(1-(3-isopropyl-5-methyl-1H-1,2,4-triazole-1-carbonyl)-1,6-diazaspiro[3.4]octan-6-yl)quinazolin-7-yl)-7-fluorobenzo[b]thiophene-3-carbonitrile]
< 5 | < 5 | < 5 | C[C@H](Oc1nc(N2CCC3(CCN3C(=O)[C@@H]3C[C@H]3C#N)C2)c2cc(Cl)c(-c3ccc(F)c4sc(N)c(C#N)c34)c(F)c2n1)[C@@H]1CCCN1C (stereo partly drawn) [Compound 206, 2-amino-4-(6-chloro-4-(1-((1R,2R)-2-cyanocyclopropane-1-carbonyl)-1,6-diazaspiro[3.4]octan-6-yl)-8-fluoro-2-((S)-1-((S)-1-methylpyrrolidin-2-yl)ethoxy)quinazolin-7-yl)-7-fluorobenzo[b]thiophene-3-carbonitrile]
< 5 | < 5 | < 5 | Cc1ncn(C(=O)N2CC[C@@]23CCN(c2nc(OC[C@@]45CCCN4C[C@H](F)C5)nc4c(F)c(-c5ccc(F)c6sc(N)c(C#N)c56)c(Cl)cc24)C3)n1 (atropisomer, axis not shown; (aS)) [Compound 338, (R)-2-amino-4-(6-chloro-8-fluoro-2-(((2R,7aS)-2-fluorotetrahydro-1H-pyrrolizin-7a(5H)-yl)methoxy)-4-((R)-1-(3-methyl-1H-1,2,4-triazole-1-carbonyl)-1,6-diazaspiro[3.4]octan-6-yl)quinazolin-7-yl)-7-fluorobenzo[b]thiophene-3-carbonitrile]
< 5 | > 5 | < 5 | N#Cc1c(N)sc2c(F)ccc(-c3c(Cl)cc4c(N5CCC6(CCN6C(=O)OC(C(F)(F)F)C(F)(F)F)C5)nc(OC[C@@]56CCCN5C[C@H](F)C6)nc4c3F)c12 (stereo partly drawn) [Compound 237, 1,1,1,3,3,3-hexafluoropropan-2-yl 6-(7-(2-amino-3-cyano-7-fluorobenzo[b]thiophen-4-yl)-6-chloro-8-fluoro-2-(((2R,7aS)-2-fluorotetrahydro-1H-pyrrolizin-7a(5H)-yl)methoxy)quinazolin-4-yl)-1,6-diazaspiro[3.4]octane-1-carboxylate]
> 5 | > 5 | > 5 | Cc1cc(N)c(F)c(-c2c(Cl)cc3c(N4CCC5(CCN5C(=O)n5cncn5)C4)nc(OC[C@@]45CCCN4C[C@H](F)C5)nc3c2F)c1C(F)(F)F (stereo partly drawn) [Compound 279, (6-(7-(3-amino-2-fluoro-5-methyl-6-(trifluoromethyl)phenyl)-6-chloro-8-fluoro-2-(((2R,7aS)-2-fluorotetrahydro-1H-pyrrolizin-7a(5H)-yl)methoxy)quinazolin-4-yl)-1,6-diazaspiro[3.4]octan-1-yl)(1H-1,2,4-triazol-1-yl)methanone]
< 5 | < 5 | < 5 | N#Cc1c(N)sc2c(F)ccc(-c3c(Cl)cc4c(N5CCC6(CCN6C(=O)n6cnc(C(F)(F)F)n6)C5)nc(OC[C@@]56CCCN5C[C@H](F)C6)nc4c3F)c12 (stereo partly drawn) [Compound 292, 2-amino-4-(6-chloro-8-fluoro-2-(((2R,7aS)-2-fluorotetrahydro-1H-pyrrolizin-7a(5H)-yl)methoxy)-4-(1-(3-(trifluoromethyl)-1H-1,2,4-triazole-1-carbonyl)-1,6-diazaspiro[3.4]octan-6-yl)quinazolin-7-yl)-7-fluorobenzo[b]thiophene-3-carbonitrile]
< 5 | < 5 | < 5 | N#Cc1c(N)sc2c(F)ccc(-c3c(Cl)cc4c(N5CCC6(COCCN6C#N)C5)nc(OC[C@@]56CCCN5C[C@H](F)C6)nc4c3F)c12 (stereo partly drawn) [Compound 302, 2-(7-(2-amino-3-cyano-7-fluorobenzo[b]thiophen-4-yl)-6-chloro-8-fluoro-2-(((2R,7aS)-2-fluorotetrahydro-1H-pyrrolizin-7a(5H)-yl)methoxy)quinazolin-4-yl)-9-oxa-2,6-diazaspiro[4.5]decane-6-carbonitrile]
< 5 | < 5 | < 5 | N#Cc1c(N)sc2c(F)ccc(-c3c(Cl)cc4c(N5CCC6(CCN6C=O)C5)nc(OC[C@@]56CCCN5C[C@H](F)C6)nc4c3F)c12 (stereo partly drawn) [Compound 227, 2-amino-4-(6-chloro-8-fluoro-2-(((2R,7aS)-2-fluorotetrahydro-1H-pyrrolizin-7a(5H)-yl)methoxy)-4-(1-formyl-1,6-diazaspiro[3.4]octan-6-yl)quinazolin-7-yl)-7-fluorobenzo[b]thiophene-3-carbonitrile]
< 5 | < 5 | < 5 | N#CCC(=O)N1CC[C@@]12CCN(c1nc(OC[C@@]34CCCN3C[C@H](F)C4)nc3c(F)c(-c4ccc(F)c5sc(N)c(C#N)c45)c(Cl)cc13)C2 [Compound 316]
< 5 | < 5 | < 5 | Nc1nc2c(-c3c(Cl)cc4c(N5CCCC6(CCN6)CC5)nc(OC[C@@]56CCCN5C[C@H](F)C6)nc4c3F)ccc(F)c2s1 (stereo partly drawn) [Compound 276, 4-(6-chloro-8-fluoro-2-(((2R,7aS)-2-fluorotetrahydro-1H-pyrrolizin-7a(5H)-yl)methoxy)-4-(1,7-diazaspiro[3.6]decan-7-yl)quinazolin-7-yl)-7-fluorobenzo[d]thiazol-2-amine]
< 5 | < 5 | < 5 | Nc1nc2c(-c3c(Cl)cc4c(N5CC6(CCN6C(=O)n6cncn6)C5)nc(OC[C@@]56CCCN5C[C@H](F)C6)nc4c3F)ccc(F)c2s1 [Compound 273, (6-(7-(2-amino-7-fluorobenzo[d]thiazol-4-yl)-6-chloro-8-fluoro-2-(((2R,7aS)-2-fluorotetrahydro-1H-pyrrolizin-7a(5H)-yl)methoxy)quinazolin-4-yl)-1,6-diazaspiro[3.3]heptan-1-yl)(1H-1,2,4-triazol-1-yl)methanone]
